Source: paper PMC6253991, “2-(3,4-Dihydro-4-Oxothieno[2,3-d]pyrimidin-2-ylthio) Acetamides as a New Class of Falcipain-2 Inhibitors. 3. Design, Synthesis and Biological Evaluation” (Molecules, 2009)

Columns and labels:
[1] = molecular target: T1, recombinant Falcipain-2 (FP-2) (Plasmodium falciparum, UniProt Q8I6U4); test: Falcipain-2 enzyme inhibition assay (fluorogenic substrate Z-Leu-Arg-AMC); assay type: biochemical; details: for IC50 / inhibition at 10 µM: FP-2 30 nM, pH 5.5, 30 min preincubation; for IC50: substrate Z-Leu-Arg-AMC 25 μM; for inhibition at 10 µM: pH 5.5, compound at 10 μM, substrate 25 μM, read-out: Inhibition rate at 10 μM (%)
T1 construct: made in house
T1 sequence (Q8I6U4 244-484): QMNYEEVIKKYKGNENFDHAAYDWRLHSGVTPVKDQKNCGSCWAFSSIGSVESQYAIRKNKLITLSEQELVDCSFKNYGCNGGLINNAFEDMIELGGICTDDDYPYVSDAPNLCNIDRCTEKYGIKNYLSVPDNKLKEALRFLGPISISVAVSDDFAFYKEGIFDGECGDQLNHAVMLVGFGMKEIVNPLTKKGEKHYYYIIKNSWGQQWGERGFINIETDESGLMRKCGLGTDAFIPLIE
Method: For the primary assay, the percent inhibitions of the compounds at 10 μM were measured. […] Therefore, we determined their IC50 values (Table 1).
The purification and refolding of recombinant protein Falcipain-2 was performed as described by Shenai et al. IC50 values against recombinant Falcipain-2 were determined as described previously. FP-2 (30 nM) was incubated for 30 min at room temperature in 100 mM sodium acetate, pH 5.5, 10 mM DTT, with different concentrations of tested inhibitors. Inhibitor solutions were prepared from stock in DMSO (maximum concentration of DMSO in the assay was 1%). After 30 min incubation, the substrate Z-Leu-Arg-AMC (benzoxycarbonyl-Leu-Arg-7-amino-4-methylcoumarin, Bachem AG) in the same buffer was added to a final concentration of 25 μM. The increase in fluorescence (excitation at 355 nm and emission at 460 nm) was monitored for 30 min at room temperature with an automated microtiter plate spectrofluorimeter (Molecular Devices, Flex station). Half-maximal inhibitory concentration (IC50) was determined from plots of percent activity over compound concentration using GraphPad Prism software.

Structure (SMILES)	IC50 [1]	inhibition at 10 µM [1]	inhibitory activity relative to prototype compound 1 (times greater) ([1]; ratio of IC50s against FP-2 versus compound 1)	melting point
C=CCn1c(SCC(=O)Nc2sc3c(c2C(N)=O)CCC3)nc2scc(-c3ccccc3)c2c1=O [Compound 1, 2-(2-(3-Allyl-3,4-dihydro-4-oxo-5-phenylthieno[2,3-d]pyrimidin-2-ylthio)acetamido)-5,6-dihydro-4H-cyclopenta[b]thiophene-3-carboxamide]	2.81 µM	88.7%	–	–
NC(=O)c1c(NC(=O)CSc2nc3scc(-c4ccccc4)c3c(=O)n2C2CCCCC2)sc2c1CCC2 [Compound 2a, 2-(2-(3-Cyclohexyl-3,4-dihydro-4-oxo-5-phenylthieno[2,3-d]pyrimidin-2-ylthio)acetamido)-5,6-dihydro-4H-cyclopenta[b]thiophene-3-carboxamide]	1.46 µM	> 90%	~ 2 times	–
NC(=O)c1c(NC(=O)CSc2nc3scc(-c4ccccc4)c3c(=O)n2-c2cccc(F)c2)sc2c1CCC2 [Compound 2b]	2.05 µM	79%	–	234 to 239 °C
NC(=O)c1c(NC(=O)CSc2nc3scc(-c4ccccc4)c3c(=O)n2-c2ccc([N+](=O)[O-])cc2)sc2c1CCC2 [Compound 2c]	2.77 µM	85.4%	–	271 to 274 °C
NC(=O)c1c(NC(=O)CSc2nc3scc(-c4ccccc4)c3c(=O)n2-c2ccc(Cl)cc2)sc2c1CCC2 [Compound 2d]	4.3 µM	84.7%	–	247 to 249 °C
NC(=O)c1c(NC(=O)CSc2nc3scc(-c4ccccc4)c3c(=O)n2Cc2ccccc2)sc2c1CCC2 [Compound 2e]	5.74 µM	> 90%	–	163 to 167 °C
C=CCn1c(SCC(=O)Nc2sc3c(c2C(N)=O)CCC3)nc2sc3c(c2c1=O)CCCC3 [Compound 3a]	5.77 µM	82.2%	–	–
C=CCn1c(SCC(=O)Nc2sc3c(c2C(N)=O)CCC3)nc2scc(-c3ccc(Cl)cc3)c2c1=O [Compound 3b, 2-(2-(3-Allyl-3,4-dihydro-4-oxo-5-(4-chlorophenyl)thieno[2,3-d]pyrimidin-2-ylthio)acetamido)-5,6-dihydro-4H-cyclopenta[b]thiophene-3-carboxamide]	2.95 µM	85.7%	–	–

Results, then the compound that gave them:

IC50 [1]	inhibition at 10 µM [1]	inhibitory activity relative to prototype compound 1 (times greater) ([1]; ratio of IC50s against FP-2 versus compound 1)	melting point	Structure (SMILES)
–	53%	–	–	C=CCn1c(SCC(=O)Nc2sc3c(c2C(N)=O)CCC3)nc2scc(-c3cccc([N+](=O)[O-])c3)c2c1=O [Compound 3c, 2-(2-(3-Allyl-3,4-dihydro-4-oxo-5-(3-nitrophenyl)thieno[2,3-d]pyrimidin-2-ylthio)acetamido)-5,6-dihydro-4H-cyclopenta[b]thiophene-3-carboxamide]
6.63 µM	93.3%	–	166 to 170 °C	C=CCn1c(SCC(=O)Nc2sc3c(c2C(=O)OCC)CCC3)nc2scc(-c3ccccc3)c2c1=O [Compound 4a, Ethyl 2-(2-(3-allyl-3,4-dihydro-4-oxo-5-phenylthieno[2,3-d]pyrimidin-2-ylthio)acetamido)-5,6-dihydro-4H-cyclopenta[b]thiophene-3-carboxylate]
5.7 µM	94.3%	–	–	C=CCn1c(SCC(=O)Nc2ccc(C(=O)OCC)cc2)nc2scc(-c3ccccc3)c2c1=O [Compound 4b, Ethyl 4-(2-(3-allyl-3,4-dihydro-4-oxo-5-phenylthieno[2,3-d]pyrimidin-2-ylthio)acetamido) benzoate]
3.31 µM	90.3%	–	192 to 194 °C	C=CCn1c(SCC(=O)Nc2nc3ccccc3s2)nc2scc(-c3ccccc3)c2c1=O [Compound 4c, 2-(3-Allyl-3,4-dihydro-4-oxo-5-phenylthieno[2,3-d]pyrimidin-2-ylthio)-N-(benzo[d]thiazol-2-yl)-acetamide]
–	–	–	212 to 214 °C	C=CCn1c(SCC(=O)Nc2sc3c(c2C(N)=O)CCCC3)nc2scc(-c3ccccc3)c2c1=O [Compound 4d, 2-(2-(3-Alyl-3,4-dihydro-4-oxo-5-phenylthieno[2,3-d]pyrimidin-2-ylthio)acetamido)-4,5,6,7-tetra-hydrobenzo[b]thiophene-3-carboxamide]
5.58 µM	72%	–	136 to 140 °C	C=CCn1c(SCC(=O)Nc2sc(C(=O)OCC)c(C)c2C(N)=O)nc2scc(-c3ccccc3)c2c1=O [Compound 4e, Ethyl 5-(2-(3-allyl-3,4-dihydro-4-oxo-5-phenylthieno[2,3-d]pyrimidin-2-ylthio)acetamido)-4-carbamoyl-3-methylthiophene-2-carboxylate]
5.43 µM	> 90%	–	–	C=CCn1c(SCC(=O)Nc2ccc(F)c(Cl)c2)nc2scc(-c3ccccc3)c2c1=O [Compound 4f, 2-(3-Allyl-3,4-dihydro-4-oxo-5-phenylthieno[2,3-d]pyrimidin-2-ylthio)-N-(3-chloro-4-fluorophenyl)-acetamide]
